Assay results from paper PMC4385830, “Group I Paks as therapeutic targets in NF2-deficient meningioma” (Oncotarget, 2015).

What was measured:
Experiment in all cases: Kinase selectivity, Z'-LYTE
Type in all cases: biochemical
PRKCQ (PKC theta) = target: T1, PRKCQ (PKC theta) (Homo sapiens, UniProt Q04759)
T1 construct: purchased Invitrogen (Life Technologies) SelectScreen Z'-LYTE
Description: (§1) Kinase selectivity was assessed using a commercial service that employs a fluorescence-based, coupled-enzyme assay based on the differential sensitivity of phosphorylated and non-phosphorylated peptides to proteolytic cleavage (Invitrogen, Z'-LYTE®). This assay uses recombinant protein kinases and assay mixed optimized for each particular kinase (http://www.lifetechnologies.com/us/en/home/life-science/drug-discovery/target-and-lead-identification-and-validation /kinasebiology/kinase-activity-assays/z-lyte.html).

ITK = target: T2, ITK (Homo sapiens, UniProt Q08881)
T2 construct: purchased Invitrogen (Life Technologies) SelectScreen Z'-LYTE
T2 sequence (Q08881 1-620): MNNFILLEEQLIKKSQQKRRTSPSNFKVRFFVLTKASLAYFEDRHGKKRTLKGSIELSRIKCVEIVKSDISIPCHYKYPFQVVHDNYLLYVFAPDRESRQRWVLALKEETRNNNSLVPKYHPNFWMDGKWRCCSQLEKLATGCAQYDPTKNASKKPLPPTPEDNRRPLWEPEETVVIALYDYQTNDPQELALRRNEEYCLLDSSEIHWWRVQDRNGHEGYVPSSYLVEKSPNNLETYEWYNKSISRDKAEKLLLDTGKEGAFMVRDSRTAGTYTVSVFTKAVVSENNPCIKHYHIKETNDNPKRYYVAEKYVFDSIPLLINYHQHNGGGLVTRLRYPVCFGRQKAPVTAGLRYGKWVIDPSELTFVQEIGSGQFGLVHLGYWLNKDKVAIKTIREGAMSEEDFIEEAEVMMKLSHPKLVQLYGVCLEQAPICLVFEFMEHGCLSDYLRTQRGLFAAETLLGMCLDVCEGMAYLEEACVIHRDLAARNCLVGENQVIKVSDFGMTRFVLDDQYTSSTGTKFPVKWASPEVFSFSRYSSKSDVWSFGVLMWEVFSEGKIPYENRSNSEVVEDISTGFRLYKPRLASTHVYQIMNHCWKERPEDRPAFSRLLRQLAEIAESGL
Description: as §1

MAPK10 (JNK3) = target: T3, MAPK10 (JNK3) (Homo sapiens, UniProt P53779)
T3 construct: purchased Invitrogen (Life Technologies) SelectScreen Z'-LYTE
Description: as §1

ZAP70 = target: T4, ZAP70 (Homo sapiens, UniProt P43403)
T4 construct: purchased Invitrogen (Life Technologies) SelectScreen Z'-LYTE
T4 sequence (P43403 1-619): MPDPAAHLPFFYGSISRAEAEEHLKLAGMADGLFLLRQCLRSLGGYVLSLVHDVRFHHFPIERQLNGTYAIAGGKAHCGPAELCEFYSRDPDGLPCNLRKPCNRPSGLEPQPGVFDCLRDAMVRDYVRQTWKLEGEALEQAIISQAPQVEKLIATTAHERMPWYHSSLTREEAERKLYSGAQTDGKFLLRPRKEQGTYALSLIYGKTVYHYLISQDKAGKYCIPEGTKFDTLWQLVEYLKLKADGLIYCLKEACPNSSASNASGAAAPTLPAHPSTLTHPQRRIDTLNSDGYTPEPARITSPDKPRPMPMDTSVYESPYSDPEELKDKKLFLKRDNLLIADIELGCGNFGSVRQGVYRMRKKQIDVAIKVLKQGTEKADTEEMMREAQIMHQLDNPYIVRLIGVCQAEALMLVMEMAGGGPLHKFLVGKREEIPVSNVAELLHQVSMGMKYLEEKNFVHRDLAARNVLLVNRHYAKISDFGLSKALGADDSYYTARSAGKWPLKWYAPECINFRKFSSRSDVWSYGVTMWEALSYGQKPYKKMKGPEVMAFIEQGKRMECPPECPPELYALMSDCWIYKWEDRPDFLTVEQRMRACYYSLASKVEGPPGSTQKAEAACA
Description: as §1

ROCK1 = target: T5, ROCK1 (Homo sapiens, UniProt Q13464)
T5 construct: purchased Invitrogen (Life Technologies) SelectScreen Z'-LYTE
Description: as §1

PRKCB1 (PKC beta I) = target: T6, PRKCB1 (PKC beta I) (Homo sapiens, UniProt P05771)
T6 construct: purchased Invitrogen (Life Technologies) SelectScreen Z'-LYTE
Description: as §1

INSR = target: T7, INSR (Homo sapiens, UniProt P06213)
T7 construct: purchased Invitrogen (Life Technologies) SelectScreen Z'-LYTE
Description: as §1

PIM2 = target: T8, PIM2 (Homo sapiens, UniProt Q9P1W9)
T8 construct: purchased Invitrogen (Life Technologies) SelectScreen Z'-LYTE
Description: as §1

YES1 = target: T9, YES1 (Homo sapiens, UniProt P07947)
T9 construct: purchased Invitrogen (Life Technologies) SelectScreen Z'-LYTE
Description: as §1

Pak4 = target: T10, Pak4 (Homo sapiens, UniProt O96013)
T10 construct: purchased Invitrogen (Life Technologies) SelectScreen Z'-LYTE
Description: as §1

CSNK1D (CK1 delta) = target: T11, CSNK1D (CK1 delta) (Homo sapiens, UniProt P48730)
T11 construct: purchased Invitrogen (Life Technologies) SelectScreen Z'-LYTE
Description: as §1

G3K3A (G3K3 alpha) = target: T12, G3K3A (G3K3 alpha) (Homo sapiens, UniProt P49840)
T12 construct: purchased Invitrogen (Life Technologies) SelectScreen Z'-LYTE
Description: as §1

[1] = target: T13, MAPK14 (p38 alpha) Direct (Homo sapiens, UniProt Q16539)
T13 construct: purchased Invitrogen (Life Technologies) SelectScreen Z'-LYTE
Description: as §1

ROCK2 = target: T14, ROCK2 (Homo sapiens, UniProt O75116)
T14 construct: purchased Invitrogen (Life Technologies) SelectScreen Z'-LYTE
Description: as §1

LYNA = target: T15, LYNA (Homo sapiens, UniProt P07948)
T15 construct: purchased Invitrogen (Life Technologies) SelectScreen Z'-LYTE
Description: as §1

EPHA2 = target: T16, EPHA2 (Homo sapiens, UniProt P29317)
T16 construct: purchased Invitrogen (Life Technologies) SelectScreen Z'-LYTE
Description: as §1

FGFR4 = target: T17, FGFR4 (Homo sapiens, UniProt P22455)
T17 construct: purchased Invitrogen (Life Technologies) SelectScreen Z'-LYTE
Description: as §1

PAK3 = target: T18, PAK3 (Homo sapiens, UniProt O75914)
T18 construct: purchased Invitrogen (Life Technologies) SelectScreen Z'-LYTE
Description: as §1

TYK2 = target: T19, TYK2 (Homo sapiens, UniProt P29597)
T19 construct: purchased Invitrogen (Life Technologies) SelectScreen Z'-LYTE
Description: as §1

PAK2 (PAK65) = target: T20, PAK2 (PAK65) (Homo sapiens, UniProt Q13177)
T20 construct: purchased Invitrogen (Life Technologies) SelectScreen Z'-LYTE
Description: as §1

P1K3CA (p110 gamma) = target: T21, P1K3CA (p110 gamma) (Homo sapiens, UniProt P48736)
T21 construct: purchased Invitrogen (Life Technologies) SelectScreen Z'-LYTE
Description: as §1

T20 sequence (Q13177 whole entry): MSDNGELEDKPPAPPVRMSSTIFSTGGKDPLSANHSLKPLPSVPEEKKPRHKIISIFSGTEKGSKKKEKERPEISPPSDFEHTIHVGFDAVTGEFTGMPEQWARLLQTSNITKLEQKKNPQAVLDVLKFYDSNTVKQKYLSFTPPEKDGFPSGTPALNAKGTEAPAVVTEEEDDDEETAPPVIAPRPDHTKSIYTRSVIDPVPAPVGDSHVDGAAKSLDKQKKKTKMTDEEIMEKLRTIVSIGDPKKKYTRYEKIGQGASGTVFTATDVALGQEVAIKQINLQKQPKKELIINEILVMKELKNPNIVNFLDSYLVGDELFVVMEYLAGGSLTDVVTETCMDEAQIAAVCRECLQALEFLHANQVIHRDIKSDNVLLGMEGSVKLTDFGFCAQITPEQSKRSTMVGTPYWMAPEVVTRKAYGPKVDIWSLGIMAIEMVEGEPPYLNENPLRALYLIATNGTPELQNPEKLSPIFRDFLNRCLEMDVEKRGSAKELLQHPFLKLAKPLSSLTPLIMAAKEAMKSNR
T12 sequence (P49840 whole entry): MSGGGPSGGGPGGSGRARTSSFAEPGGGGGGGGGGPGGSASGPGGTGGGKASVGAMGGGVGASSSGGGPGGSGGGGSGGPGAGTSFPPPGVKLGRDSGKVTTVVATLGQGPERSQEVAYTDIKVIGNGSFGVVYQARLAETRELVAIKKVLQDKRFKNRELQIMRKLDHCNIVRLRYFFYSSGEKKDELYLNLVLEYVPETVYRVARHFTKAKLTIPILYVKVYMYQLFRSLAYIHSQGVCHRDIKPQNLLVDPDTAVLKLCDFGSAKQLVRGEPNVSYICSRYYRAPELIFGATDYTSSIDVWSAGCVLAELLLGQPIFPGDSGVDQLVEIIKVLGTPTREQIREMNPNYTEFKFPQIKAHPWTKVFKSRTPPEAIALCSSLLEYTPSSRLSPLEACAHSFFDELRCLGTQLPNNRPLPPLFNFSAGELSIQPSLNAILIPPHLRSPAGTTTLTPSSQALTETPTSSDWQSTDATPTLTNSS
T21 sequence (P48736 whole entry): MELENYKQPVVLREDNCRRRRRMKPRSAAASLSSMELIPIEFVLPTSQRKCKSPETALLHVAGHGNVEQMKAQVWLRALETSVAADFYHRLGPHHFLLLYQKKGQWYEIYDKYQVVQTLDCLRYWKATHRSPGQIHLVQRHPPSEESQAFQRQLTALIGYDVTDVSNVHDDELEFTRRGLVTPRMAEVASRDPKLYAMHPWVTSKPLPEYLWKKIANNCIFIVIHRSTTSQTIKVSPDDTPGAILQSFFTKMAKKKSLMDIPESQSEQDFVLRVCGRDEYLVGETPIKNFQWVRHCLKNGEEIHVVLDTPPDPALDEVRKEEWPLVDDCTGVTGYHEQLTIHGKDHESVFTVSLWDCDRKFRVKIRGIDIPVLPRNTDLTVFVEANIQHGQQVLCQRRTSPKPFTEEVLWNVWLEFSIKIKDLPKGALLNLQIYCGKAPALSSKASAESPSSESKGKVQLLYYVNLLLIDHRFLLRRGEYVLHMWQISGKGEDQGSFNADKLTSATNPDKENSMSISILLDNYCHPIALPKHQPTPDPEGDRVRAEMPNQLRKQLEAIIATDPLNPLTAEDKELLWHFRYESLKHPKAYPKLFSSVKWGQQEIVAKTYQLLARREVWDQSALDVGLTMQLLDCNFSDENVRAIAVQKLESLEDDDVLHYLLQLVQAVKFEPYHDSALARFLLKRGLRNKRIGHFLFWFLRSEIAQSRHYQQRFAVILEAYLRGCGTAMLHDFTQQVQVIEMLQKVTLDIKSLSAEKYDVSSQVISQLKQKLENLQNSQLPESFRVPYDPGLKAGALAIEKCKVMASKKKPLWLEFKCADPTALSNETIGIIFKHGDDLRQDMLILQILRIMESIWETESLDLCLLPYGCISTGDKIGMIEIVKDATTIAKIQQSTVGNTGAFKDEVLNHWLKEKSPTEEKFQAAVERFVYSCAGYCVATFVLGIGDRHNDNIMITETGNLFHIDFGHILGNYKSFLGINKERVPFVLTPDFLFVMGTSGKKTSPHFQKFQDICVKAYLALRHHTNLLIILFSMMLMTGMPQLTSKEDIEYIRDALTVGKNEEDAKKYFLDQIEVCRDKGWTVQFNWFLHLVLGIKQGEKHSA
T6 sequence (P05771 whole entry): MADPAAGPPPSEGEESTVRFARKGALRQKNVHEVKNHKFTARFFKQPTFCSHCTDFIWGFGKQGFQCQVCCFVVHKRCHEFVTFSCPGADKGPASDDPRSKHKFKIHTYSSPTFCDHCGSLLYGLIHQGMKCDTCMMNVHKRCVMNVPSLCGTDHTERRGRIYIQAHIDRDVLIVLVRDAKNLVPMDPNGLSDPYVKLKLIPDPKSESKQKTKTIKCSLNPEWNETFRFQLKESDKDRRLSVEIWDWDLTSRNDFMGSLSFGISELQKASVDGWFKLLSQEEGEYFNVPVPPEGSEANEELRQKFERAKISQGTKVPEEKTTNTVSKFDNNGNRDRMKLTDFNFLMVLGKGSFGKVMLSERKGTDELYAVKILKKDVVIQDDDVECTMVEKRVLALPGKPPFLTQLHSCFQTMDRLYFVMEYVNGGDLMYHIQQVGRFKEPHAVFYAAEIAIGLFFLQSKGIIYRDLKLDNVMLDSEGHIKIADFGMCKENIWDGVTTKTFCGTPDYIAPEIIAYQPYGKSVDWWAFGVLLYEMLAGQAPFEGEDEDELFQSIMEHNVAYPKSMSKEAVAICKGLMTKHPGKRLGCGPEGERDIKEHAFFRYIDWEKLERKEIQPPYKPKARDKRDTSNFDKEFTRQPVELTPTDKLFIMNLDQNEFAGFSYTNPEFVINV
T19 sequence (P29597 whole entry): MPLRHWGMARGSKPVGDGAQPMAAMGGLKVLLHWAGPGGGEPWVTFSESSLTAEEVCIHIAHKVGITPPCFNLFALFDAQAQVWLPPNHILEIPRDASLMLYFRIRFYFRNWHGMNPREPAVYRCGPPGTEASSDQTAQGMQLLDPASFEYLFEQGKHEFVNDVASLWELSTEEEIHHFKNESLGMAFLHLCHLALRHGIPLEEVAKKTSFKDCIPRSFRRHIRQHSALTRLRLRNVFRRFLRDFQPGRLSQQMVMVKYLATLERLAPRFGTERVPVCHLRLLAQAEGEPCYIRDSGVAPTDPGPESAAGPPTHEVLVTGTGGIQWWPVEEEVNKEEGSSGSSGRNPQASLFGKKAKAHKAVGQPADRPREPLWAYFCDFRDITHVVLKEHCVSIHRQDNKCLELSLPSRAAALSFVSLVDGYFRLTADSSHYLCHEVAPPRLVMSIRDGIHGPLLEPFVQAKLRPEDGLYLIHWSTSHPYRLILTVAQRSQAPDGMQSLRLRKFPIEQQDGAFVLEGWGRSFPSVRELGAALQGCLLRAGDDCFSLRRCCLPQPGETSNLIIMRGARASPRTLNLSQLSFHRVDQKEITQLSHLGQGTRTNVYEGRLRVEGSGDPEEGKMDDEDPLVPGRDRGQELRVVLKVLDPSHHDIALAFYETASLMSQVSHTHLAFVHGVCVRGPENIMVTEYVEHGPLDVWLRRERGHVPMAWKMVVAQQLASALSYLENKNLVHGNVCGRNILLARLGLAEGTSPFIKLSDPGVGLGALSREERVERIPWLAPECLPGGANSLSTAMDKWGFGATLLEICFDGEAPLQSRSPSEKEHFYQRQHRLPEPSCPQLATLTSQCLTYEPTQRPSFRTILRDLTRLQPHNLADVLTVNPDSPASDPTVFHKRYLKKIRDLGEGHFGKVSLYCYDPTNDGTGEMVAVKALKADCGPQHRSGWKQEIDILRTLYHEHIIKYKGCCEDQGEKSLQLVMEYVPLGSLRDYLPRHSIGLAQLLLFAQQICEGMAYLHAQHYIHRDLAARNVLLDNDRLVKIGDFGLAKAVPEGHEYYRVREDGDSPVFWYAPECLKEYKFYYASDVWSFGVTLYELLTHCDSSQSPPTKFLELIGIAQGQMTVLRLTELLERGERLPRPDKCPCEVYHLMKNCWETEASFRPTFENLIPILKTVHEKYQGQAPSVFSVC
T13 sequence (Q16539 whole entry): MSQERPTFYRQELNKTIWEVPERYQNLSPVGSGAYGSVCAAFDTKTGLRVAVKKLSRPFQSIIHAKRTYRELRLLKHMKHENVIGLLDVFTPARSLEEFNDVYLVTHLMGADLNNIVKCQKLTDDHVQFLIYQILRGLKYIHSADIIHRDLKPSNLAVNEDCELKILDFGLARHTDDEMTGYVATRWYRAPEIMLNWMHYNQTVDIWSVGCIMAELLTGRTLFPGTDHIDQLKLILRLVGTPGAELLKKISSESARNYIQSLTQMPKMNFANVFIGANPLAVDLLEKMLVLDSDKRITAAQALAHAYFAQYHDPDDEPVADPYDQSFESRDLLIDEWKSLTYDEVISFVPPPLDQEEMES
T18 sequence (O75914 whole entry): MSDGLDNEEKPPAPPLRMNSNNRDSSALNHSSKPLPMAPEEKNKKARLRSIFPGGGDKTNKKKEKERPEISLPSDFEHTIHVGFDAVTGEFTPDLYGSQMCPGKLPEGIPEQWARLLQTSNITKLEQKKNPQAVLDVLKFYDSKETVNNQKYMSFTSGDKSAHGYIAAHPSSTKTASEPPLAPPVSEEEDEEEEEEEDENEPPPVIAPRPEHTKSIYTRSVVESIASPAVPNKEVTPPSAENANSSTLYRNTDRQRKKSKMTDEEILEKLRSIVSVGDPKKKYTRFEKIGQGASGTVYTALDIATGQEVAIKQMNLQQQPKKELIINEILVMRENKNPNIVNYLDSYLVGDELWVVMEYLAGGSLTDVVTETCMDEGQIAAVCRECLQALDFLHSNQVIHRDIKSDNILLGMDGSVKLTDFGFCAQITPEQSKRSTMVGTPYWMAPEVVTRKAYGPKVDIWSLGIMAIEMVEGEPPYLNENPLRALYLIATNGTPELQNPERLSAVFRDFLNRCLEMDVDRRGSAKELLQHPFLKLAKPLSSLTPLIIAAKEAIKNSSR

Structure (SMILES) | % inhibition of activity (PRKCQ (PKC theta)) [%] | % inhibition of activity (ITK) [%] | % inhibition of activity (MAPK10 (JNK3)) [%] | % inhibition of activity (ZAP70) [%] | % inhibition of activity (ROCK1) [%] | % inhibition of activity (PRKCB1 (PKC beta I)) [%] | % inhibition of activity (INSR) [%] | % inhibition of activity (PIM2) [%] | % inhibition of activity (YES1) [%] | % inhibition of activity (Pak4) [%] | % inhibition of activity (CSNK1D (CK1 delta)) [%] | % inhibition of activity (G3K3A (G3K3 alpha)) [%] | % inhibition of activity [1] [%] | % inhibition of activity (ROCK2) [%] | % inhibition of activity (LYNA) [%] | % inhibition of activity (EPHA2) [%] | % inhibition of activity (FGFR4) [%] | % inhibition of activity (PAK3) [%] | % inhibition of activity (TYK2) [%] | % inhibition of activity (PAK2 (PAK65)) [%] | also measured
Cc1nc(Nc2[nH]nc3c2CN(C(=O)N[C@H](CN(C)C)c2ccccc2)C3(C)C)c2sccc2n1 [PF3758309, reference compound] | 97 | 23 | 5 | 10 | 5 | 58 | 7 | 4 | 86 | 99 | 3 | 52 | 7 | 10 | 76 | 18 | 11 | 100 | 14 | 100 | % inhibition of activity (P1K3CA (p110 gamma)): 0%
CCn1c(=O)c(-c2ccc(-c3noc(C)n3)cc2Cl)cc2cnc(Nc3ccc(C4CCN(C)CC4)cc3)nc21 [Frax716] | 12 | 84 | 12 | 8 | 2 | 9 | 14 | 1 | 89 | 7 | 6 | −9 | 10 | 4 | 88 | 68 | 20 | 90 | 54 | 100 | % inhibition of activity (P1K3CA (p110 gamma)): 0%
CCn1c(=O)c(-c2ccc(-c3cncc(C)n3)cc2Cl)cc2cnc(NCCC3CCN(C)CC3)nc21 [Frax1036] | 24 | 0 | 45 | 3 | −2 | 18 | 0 | 3 | 18 | 6 | 11 | 7 | 0 | 7 | 39 | 18 | 9 | 106 | 6 | 98 | % inhibition of activity (P1K3CA (p110 gamma)): 0%
